Organism: Rattus norvegicus
Experiment: DrugMatrix - Regimen: Daily Repeat
Format: toxicity, organism-based, Sprague-Dawley
Parameters: regimen Daily Repeat, gender Male, age 6-8 weeks
Conditions: in vivo, po, route oral GAVAGE, vehicle .5 % CMC; for ABSOLUTE BASOPHIL / ABSOLUTE EOSINOPHIL / ABSOLUTE LYMPHOCYTE / ABSOLUTE MONOCYTE / ABSOLUTE SEGMENTED NEUTROPHIL / BASOPHIL / EOSINOPHIL / ERYTHROCYTE COUNT / HEMATOCRIT / HEMOGLOBIN / LEUKOCYTE COUNT / LYMPHOCYTE / MEAN CORPUSCULAR HEMOGLOBIN / MEAN CORPUSCULAR HEMOGLOBIN CONCENTRATION / MEAN CORPUSCULAR VOLUME / MONOCYTE / NEUTROPHIL / NUCLEATED RED BLOOD CELLS / PLATELET COUNT: tissue Blood; for ALANINE AMINOTRANSFERASE / ALBUMIN / ALKALINE PHOSPHATASE / ASPARTATE AMINOTRANSFERASE / BLOOD UREA NITROGEN / CARBON DIOXIDE / CHLORIDE / CHOLESTEROL / CREATINE PHOSPHOKINASE / CREATININE / GLUCOSE / LACTATE DEHYDROGENASE / LIPASE / PHOSPHORUS / SODIUM / TOTAL BILIRUBIN / TOTAL PROTEIN / URIC ACID: tissue Plasma
[1] = 54 mg/kg, 72 h, dose level Low, time 3 day
[2] = 54 mg/kg, 120 h, dose level Low, time 5 day
[3] = 1200 mg/kg, 72 h, dose level High, time 3 day
[4] = 1200 mg/kg, 120 h, dose level High, time 5 day

NC(N)=Nc1nc(CSCCC(N)=NS(N)(=O)=O)cs1 [FAMOTIDINE]
ABSOLUTE BASOPHIL [1]: 0 CELLS/uL | ABSOLUTE EOSINOPHIL [1]: 169.67 CELLS/uL | ABSOLUTE LYMPHOCYTE [1]: 13320 CELLS/uL | ABSOLUTE MONOCYTE [1]: 113.67 CELLS/uL | ABSOLUTE SEGMENTED NEUTROPHIL [1]: 2530 CELLS/uL | BASOPHIL [1]: 0% | EOSINOPHIL [1]: 1% | ERYTHROCYTE COUNT [1]: 5.11 x10E6/uL | HEMATOCRIT [1]: 32.47% | HEMOGLOBIN [1]: 12.1 G/DL | LEUKOCYTE COUNT [1]: 16.13 x10E3/uL | LYMPHOCYTE [1]: 81.67% | MEAN CORPUSCULAR HEMOGLOBIN [1]: 23.73 pg | MEAN CORPUSCULAR HEMOGLOBIN CONCENTRATION [1]: 37.27 G/DL | MEAN CORPUSCULAR VOLUME [1]: 63.57 fL | MONOCYTE [1]: 0.67% | NEUTROPHIL [1]: 16.67% | NUCLEATED RED BLOOD CELLS [1]: 0 /100WBC | PLATELET COUNT [1]: 1110 x10E3/uL | ALANINE AMINOTRANSFERASE [1]: 57 u/L | ALBUMIN [1]: 4.17 G/DL | ALKALINE PHOSPHATASE [1]: 343.67 u/L | ASPARTATE AMINOTRANSFERASE [1]: 85 u/L | BLOOD UREA NITROGEN [1]: 17 mg/dL | CARBON DIOXIDE [1]: 27.33 mmol/L | CHLORIDE [1]: 106.67 MEQ/L | CHOLESTEROL [1]: 74.67 mg/dL | CREATINE PHOSPHOKINASE [1]: 218 u/L | CREATININE [1]: 0.19 mg/dL | GLUCOSE [1]: 162 mg/dL | LACTATE DEHYDROGENASE [1]: 62.33 u/L | LIPASE [1]: 9 u/L | PHOSPHORUS [1]: 14.6 mg/dL | SODIUM [1]: 148.03 MEQ/L | TOTAL BILIRUBIN [1]: 0.2 mg/dL | TOTAL PROTEIN [1]: 5.87 G/DL | URIC ACID [1]: 1.13 mg/dL | ABSOLUTE BASOPHIL [2]: 0 CELLS/uL | ABSOLUTE EOSINOPHIL [2]: 121 CELLS/uL | ABSOLUTE LYMPHOCYTE [2]: 12766.33 CELLS/uL | ABSOLUTE MONOCYTE [2]: 233 CELLS/uL | ABSOLUTE SEGMENTED NEUTROPHIL [2]: 713 CELLS/uL | BASOPHIL [2]: 0% | EOSINOPHIL [2]: 1% | ERYTHROCYTE COUNT [2]: 5.42 x10E6/uL | HEMATOCRIT [2]: 34.9% | HEMOGLOBIN [2]: 13.43 G/DL | LEUKOCYTE COUNT [2]: 13.83 x10E3/uL | LYMPHOCYTE [2]: 92% | MEAN CORPUSCULAR HEMOGLOBIN [2]: 24.87 pg | MEAN CORPUSCULAR HEMOGLOBIN CONCENTRATION [2]: 38.5 G/DL | MEAN CORPUSCULAR VOLUME [2]: 64.63 fL | MONOCYTE [2]: 1.67% | NEUTROPHIL [2]: 5.33% | NUCLEATED RED BLOOD CELLS [2]: 0 /100WBC | PLATELET COUNT [2]: 1325.67 x10E3/uL | ALANINE AMINOTRANSFERASE [2]: 55.33 u/L | ALBUMIN [2]: 4.33 G/DL | ALKALINE PHOSPHATASE [2]: 326.67 u/L | ASPARTATE AMINOTRANSFERASE [2]: 90.67 u/L | BLOOD UREA NITROGEN [2]: 18 mg/dL | CARBON DIOXIDE [2]: 24.33 mmol/L | CHLORIDE [2]: 106.33 MEQ/L | CHOLESTEROL [2]: 62.67 mg/dL | CREATINE PHOSPHOKINASE [2]: 662.67 u/L | CREATININE [2]: 0.19 mg/dL | GLUCOSE [2]: 182.67 mg/dL | LACTATE DEHYDROGENASE [2]: 190.67 u/L | LIPASE [2]: 8 u/L | PHOSPHORUS [2]: 14.57 mg/dL | SODIUM [2]: 146.63 MEQ/L | TOTAL BILIRUBIN [2]: 0.2 mg/dL | TOTAL PROTEIN [2]: 6.07 G/DL | URIC ACID [2]: 1.6 mg/dL | ABSOLUTE BASOPHIL [3]: 0 CELLS/uL | ABSOLUTE EOSINOPHIL [3]: 179 CELLS/uL | ABSOLUTE LYMPHOCYTE [3]: 9906 CELLS/uL | ABSOLUTE MONOCYTE [3]: 48.67 CELLS/uL | ABSOLUTE SEGMENTED NEUTROPHIL [3]: 1366.33 CELLS/uL | BASOPHIL [3]: 0% | EOSINOPHIL [3]: 1.67% | ERYTHROCYTE COUNT [3]: 5.88 x10E6/uL | HEMATOCRIT [3]: 36.73% | HEMOGLOBIN [3]: 13.97 G/DL | LEUKOCYTE COUNT [3]: 11.5 x10E3/uL | LYMPHOCYTE [3]: 85.33% | MEAN CORPUSCULAR HEMOGLOBIN [3]: 23.73 pg | MEAN CORPUSCULAR HEMOGLOBIN CONCENTRATION [3]: 38.03 G/DL | MEAN CORPUSCULAR VOLUME [3]: 62.5 fL | MONOCYTE [3]: 0.67% | NEUTROPHIL [3]: 12.33% | NUCLEATED RED BLOOD CELLS [3]: 0 /100WBC | PLATELET COUNT [3]: 1159.67 x10E3/uL | ALANINE AMINOTRANSFERASE [3]: 56 u/L | ALBUMIN [3]: 4.43 G/DL | ALKALINE PHOSPHATASE [3]: 396.33 u/L | ASPARTATE AMINOTRANSFERASE [3]: 89 u/L | BLOOD UREA NITROGEN [3]: 16.33 mg/dL | CARBON DIOXIDE [3]: 26.33 mmol/L | CHLORIDE [3]: 106.33 MEQ/L | CHOLESTEROL [3]: 85.33 mg/dL | CREATINE PHOSPHOKINASE [3]: 213.67 u/L | CREATININE [3]: 0.2 mg/dL | GLUCOSE [3]: 152.33 mg/dL | LACTATE DEHYDROGENASE [3]: 137.33 u/L | LIPASE [3]: 8.67 u/L | PHOSPHORUS [3]: 13.77 mg/dL | SODIUM [3]: 148.03 MEQ/L | TOTAL BILIRUBIN [3]: 0.27 mg/dL | TOTAL PROTEIN [3]: 6.4 G/DL | URIC ACID [3]: 2.37 mg/dL | ABSOLUTE BASOPHIL [4]: 0 CELLS/uL | ABSOLUTE EOSINOPHIL [4]: 254 CELLS/uL | ABSOLUTE LYMPHOCYTE [4]: 15699.67 CELLS/uL | ABSOLUTE MONOCYTE [4]: 74 CELLS/uL | ABSOLUTE SEGMENTED NEUTROPHIL [4]: 1405.67 CELLS/uL | BASOPHIL [4]: 0% | EOSINOPHIL [4]: 1.33% | ERYTHROCYTE COUNT [4]: 5.4 x10E6/uL | HEMATOCRIT [4]: 34.6% | HEMOGLOBIN [4]: 13.17 G/DL | LEUKOCYTE COUNT [4]: 17.43 x10E3/uL | LYMPHOCYTE [4]: 90% | MEAN CORPUSCULAR HEMOGLOBIN [4]: 24.43 pg | MEAN CORPUSCULAR HEMOGLOBIN CONCENTRATION [4]: 38.03 G/DL | MEAN CORPUSCULAR VOLUME [4]: 64.2 fL | MONOCYTE [4]: 0.33% | NEUTROPHIL [4]: 8.33% | NUCLEATED RED BLOOD CELLS [4]: 0 /100WBC | PLATELET COUNT [4]: 1387 x10E3/uL | ALANINE AMINOTRANSFERASE [4]: 59 u/L | ALBUMIN [4]: 4.4 G/DL | ALKALINE PHOSPHATASE [4]: 383.67 u/L | ASPARTATE AMINOTRANSFERASE [4]: 87.67 u/L | BLOOD UREA NITROGEN [4]: 18 mg/dL | CARBON DIOXIDE [4]: 25.67 mmol/L | CHLORIDE [4]: 103.67 MEQ/L | CHOLESTEROL [4]: 59.33 mg/dL | CREATINE PHOSPHOKINASE [4]: 259.33 u/L | CREATININE [4]: 0.27 mg/dL | GLUCOSE [4]: 182 mg/dL | LACTATE DEHYDROGENASE [4]: 250.33 u/L | LIPASE [4]: 8.67 u/L | PHOSPHORUS [4]: 14.07 mg/dL | SODIUM [4]: 145.8 MEQ/L | TOTAL BILIRUBIN [4]: 0.17 mg/dL | TOTAL PROTEIN [4]: 6.3 G/DL | URIC ACID [4]: 2.17 mg/dL

Source: ChEMBL document CHEMBL3885881, “DrugMatrix”
